Earlier results on 1 compound are cited in patent US20230019999A1, “COMBINATION DRUG” (Chugai Seiyaku Kabushiki Kaisha, priority 2019, published 2023).

The subject of this data set is lung cancer cells positive for the CCDC6-RET fusion gene. The note with it: non-clinical studies, Non Patent Literatures 9 and 10.

Consider `CCc1cc2c(cc1N1CCC(N3CCOCC3)CC1)C(C)(C)c1[nH]c3cc(C#N)ccc3c1C2=O` [Alectinib, 9-ethyl-6,6-dimethyl-8-[4-(morpholin-4-yl)-piperidin-1-yl]-11-oxo-6,11-dihydro-5H-benzo[b]carbazole-3-carbonitrile], for which the anti-tumor effect entry is recorded as “exhibit an anti-tumor effect”.
